Measured values as given in US20080227748A1, “Medicament Made From Laminarine or Oligolaminarines For Treatment of Septicemia and Septic Shock” (LABORATOIRES GOEMAR, priority 2005, published 2008).

Experiment: Feeding treatment with Dectinan-enriched diet before injection of LPS (weight, consumption, glycemia, triglyceridemia, feces)
Set-up: species or system male Wistar Han rats
Conditions: rat, in vivo
Protocol: The animals selected for the abovesaid studies were male Wistar Han rats (Harlem, Netherlands).
The experiments were carried out on two groups of eight rats each.
The rats of one of the two groups—“control group”—had available to them “ad libitum” a standard feed with the AO4 trade name (UAR, France); the rats of the other group had available to them the same feed but supplemented with the above said laminarin, sold under the “Dectinan” trade name; in a first phase and for four days (−4 to −1), the feed was enriched with 5% by weight of Dectinan and then with 10% by weight in a second phase of 21 days (days 0 to 21); this second group of rats is denoted by “Dectinan group”.
The days on which the various withdrawals and measurements are made are identified in table I below.
a) Before injection of LPS • bodyweight • weight of wet feces and feces after freeze drying (collected over 24 h) • weight of the diet and of the drinking water • taking of blood from the caudal vein: quantitative determination of triglycerides and glucose
In this regard, the values mentioned later represent the mean ±SDM (Standard Deviation of the Mean). […]

Total consumption of drinking water: 611.5 ± 17.9 mL | Total consumption of feed: 431.5 ± 6.0 g
Substance: laminarin [Dectinan®]
